pIC50: −log10 of the molar value.
Legend:
[1] = test system: IL3000 T. congolense (drug sensitive) strain; assay: In vitro Alamar Blue 72 h drug sensitivity assay for T. congolense; type: cell-based, Trypanosoma congolense; conditions: Trypanosoma congolense, 72 h, bloodstream form, 69 h + 3 h Resazurin, 34° C., read-out: IC50: I Org. Growth T. congolense 3 d
Summary of the method: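 Bloodstream-form trypanosomes in HMI medium with 20% bovine serum were exposed to compounds for 69 h at 34° C, 5% CO2, then resazurin for another 3 h. Fluorescence read at ex 536/em 588 nm; IC50 from 11-point sigmoidal dose-response curves, at least three independent runs.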

[2] = test system: T. cruzi amastigote (Td Tomato-modified) in Vero cells; assay: In vitro IC50 measurement of T. cruzi amastigote killing using Td Tomato-modified T. cruzi; type: cell-based; conditions: Trypanosoma cruzi, 72 h, fluorescence, read-out: IC50: I Org. amastigote Growth T. cruzi 3 d
Summary of the method: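 Vero cells infected with Td Tomato-expressing T. cruzi, treated with compound at 5 uM to 5 nM final, incubated 72 h at 37 °C. Fluorescence (Ex 544/Em 612 nm) read at Day 0 and Day 3, Day 0 subtracted; IC50 and IC90 by nonlinear regression.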

Row | SMILES | pIC50 [1] | pIC50 [2]
1 | Cc1c(C(=O)N[C@H](C(=O)OCc2ccc(CN3CCN(C)CC3)cc2)C(C)C)ccc2c1B(O)OC2 [Example 6-111, 4-((4-Methylpiperazin-1-yl)methyl)benzyl (1-hydroxy-7-methyl-1,3-dihydrobenzo[c][1,2]oxaborole-6-carbonyl)-L-valinate] | 8.00 to 9.29 | ≥ 7.70
2 | CC(C)[C@H](NC(=O)c1ccc2c(c1C1CC1)B(O)OC2)C(=O)OCc1ccccc1 [Example 6-058, Benzyl (7-cyclopropyl-1-hydroxy-1,3-dihydrobenzo[c][1,2]oxaborole-6-carbonyl)-L-valinate] | > 9.30 | ≤ 6.00
3 | Cc1c(C(=O)N[C@H](C(=O)OCc2cncc(N3CCN(C)CC3)n2)C(C)C)ccc2c1B(O)OC2 [Example 6-204, (6-(4-methylpiperazin-1-yl)pyrazin-2-yl)methyl (1-hydroxy-7-methyl-1,3-dihydrobenzo[c][1,2]oxaborole-6-carbonyl)-L-valinate] | > 9.30 | ≥ 7.70
4 | Cc1c(C(=O)N[C@H](C(=O)OCc2ccc(C#N)cc2)C(C)C)ccc2c1B(O)OC2 [Example 6-044, 4-Cyanobenzyl (1-hydroxy-7-methyl-1,3-dihydrobenzo[c][1,2]oxaborole-6-carbonyl)-L-valinate] | > 9.30 | ≥ 7.70
5 | Cc1c(C(=O)N[C@H](C(=O)OCc2cccc(N3CCN(C)CC3)n2)C(C)C)ccc2c1B(O)OC2 [Example 6-201, (6-(4-methylpiperazin-1-yl)pyridin-2-yl)methyl (1-hydroxy-7-methyl-1,3-dihydrobenzo[c][1,2]oxaborole-6-carbonyl)-L-valinate] | > 9.30 | 6.00 to 7.68
6 | Cc1c(C(=O)NC2(C(=O)OCc3ccccn3)COC2)ccc2c1B(O)OC2 [Example 6-223, Pyridin-2-ylmethyl 3-(1-hydroxy-7-methyl-1,3-dihydrobenzo[c][1,2]oxaborole-6-carboxamido)oxetane-3-carboxylate] | 5.30 to 8.00 | 6.00 to 7.68
7 | CC(C)[C@H](NC(=O)c1ccc2c(c1F)B(O)OC2)C(=O)OCc1ccccc1 [Example 6-035, Benzyl (7-fluoro-1-hydroxy-1,3-dihydrobenzo[c][1,2]oxaborole-6-carbonyl)-L-valinate] | 5.30 to 8.00 | ≤ 6.00
8 | Cc1c(C(=O)NC2(C(=O)OCc3ccc(F)cc3)CCC2)ccc2c1B(O)OC2 [Example 6-066, 4-Fluorobenzyl 1-(1-hydroxy-7-methyl-1,3-dihydrobenzo[c][1,2]oxaborole-6-carboxamido)cyclobutane-1-carboxylate] | > 9.30 | ≥ 7.70
9 | Cc1c(C(=O)N[C@H](C(=O)OCc2ccc(C(F)(F)F)cc2)C(C)C)ccc2c1B(O)OC2 [Example 6-041, 4-Trifluoromethylbenzyl (1-hydroxy-7-methyl-1,3-dihydrobenzo[c][1,2]oxaborole-6-carbonyl)-L-valinate] | > 9.30 | ≥ 7.70
10 | Cc1c(C(=O)N[C@H](C(=O)OCCN2CCOCC2)C(C)C)ccc2c1B(O)OC2 [Example 6-170, 2-Morpholinoethyl (1-hydroxy-7-methyl-1,3-dihydrobenzo[c][1,2]oxaborole-6-carbonyl)-L-valinate] | 8.00 to 9.29 | 6.00 to 7.68
11 | Cc1c(C(=O)N[C@H](C(=O)OCc2cccc(CN3CCOCC3)c2)C(C)C)ccc2c1B(O)OC2 [Example 6-083, 3-(Morpholinomethyl)benzyl (1-hydroxy-7-methyl-1,3-dihydrobenzo[c][1,2]oxaborole-6-carbonyl)-L-valinate] | > 9.30 | ≥ 7.70
12 | Cc1c(C(=O)N[C@H](C(=O)OCc2cnccn2)C(C)C)ccc2c1B(O)OC2 [Example 6-186, Pyrazin-2-ylmethyl (1-hydroxy-7-methyl-1,3-dihydrobenzo[c][1,2]oxaborole-6-carbonyl)-L-valinate] | 8.00 to 9.29 | 6.00 to 7.68
13 | Cc1c(C(=O)N[C@H](C(=O)OCc2ccc(OCCCN3CCCC3)cc2)C(C)C)ccc2c1B(O)OC2 [Example 6-249, 4-(3-(Pyrrolidin-1-yl)propoxy)benzyl(1-hydroxy-7-methyl-1,3-dihydrobenzo[c][1,2]oxaborole-6-carbonyl)-L-valinate] | 8.00 to 9.29 | 6.00 to 7.68
14 | Cc1c(C(=O)N[C@H](C(=O)OC[C@@H](O)CO)C(C)C)ccc2c1B(O)OC2 [Example 6-148, (S)-2,3-dihydroxypropyl (1-hydroxy-7-methyl-1,3-dihydrobenzo[c][1,2]oxaborole-6-carbonyl)-L-valinate] | 5.30 to 8.00 | ≤ 6.00
15 | C[C@H](NC(=O)c1ccc2c(c1)B(O)OC2)C(=O)O [Example 6-164, (1-Hydroxy-1,3-dihydrobenzo[c][1,2]oxaborole-6-carbonyl)-L-alanine] | 5.30 to 8.00 | ≤ 6.00
16 | Cc1c(C(=O)N[C@H](C(=O)OCC2CCCO2)C(C)C)ccc2c1B(O)OC2 (stereo partly drawn) [Example 6-210, (tetrahydrofuran-2-yl)methyl (1-hydroxy-7-methyl-1,3-dihydrobenzo[c][1,2]oxaborole-6-carbonyl)-L-valinate] | > 9.30 | ≥ 7.70
17 | Cc1c(C(=O)N[C@H](C(=O)OCc2ccc(C(=O)N3CCNCC3)cc2)C(C)C)ccc2c1B(O)OC2 [Example 6-102, 4-(Piperazine-1-carbonyl)benzyl (1-hydroxy-7-methyl-1,3-dihydrobenzo[c][1,2]oxaborole-6-carbonyl)-L-valinate] | 5.30 to 8.00 | ≤ 6.00
18 | Cc1c(C(=O)N[C@H](C(=O)OCc2cccc(CN(C)C)c2)C(C)C)ccc2c1B(O)OC2 [Example 6-081, 3-((Dimethylamino)methyl)benzyl (1-hydroxy-7-methyl-1,3-dihydrobenzo[c][1,2]oxaborole-6-carbonyl)-L-valinate] | > 9.30 | 6.00 to 7.68
19 | CCS(=O)(=O)c1ccc(COC(=O)[C@@H](NC(=O)c2ccc3c(c2C)B(O)OC3)C(C)C)cc1 [Example 6-093, 4-(Ethylsulfonyl)benzyl (1-hydroxy-7-methyl-1,3-dihydrobenzo[c][1,2]oxaborole-6-carbonyl)-L-valinate] | 8.00 to 9.29 | 6.00 to 7.68
20 | Cc1c(C(=O)N[C@H](C(=O)OCC2(O)CCCCC2)C(C)C)ccc2c1B(O)OC2 [Example 6-229, (1-hydroxycyclohexyl)methyl (1-hydroxy-7-methyl-1,3-dihydrobenzo[c][1,2]oxaborole-6-carbonyl)-L-valinate] | > 9.30 | ≥ 7.70
21 | Cc1c(C(=O)N[C@H](C(=O)OCc2cccc(C(F)(F)F)c2)C(C)C)ccc2c1B(O)OC2 [Example 6-046, 3-Trifluoromethylbenzyl (1-hydroxy-7-methyl-1,3-dihydrobenzo[c][1,2]oxaborole-6-carbonyl)-L-valinate] | > 9.30 | ≥ 7.70
22 | Cc1c(C(=O)N[C@H](C(=O)OC(C(F)(F)F)C(F)(F)F)C(C)C)ccc2c1B(O)OC2 [Example 6-156, 1,1,1,3,3,3-Hexafluoropropan-2-yl (1-hydroxy-7-methyl-1,3-dihydrobenzo[c][1,2]oxaborole-6-carbonyl)-L-valinate] | 5.30 to 8.00 | ≤ 6.00
23 | Cc1c(C(=O)N[C@H](C(=O)OCC(C)(C)O)C(C)C)ccc2c1B(O)OC2 [Example 6-211, 2-hydroxy-2-methylpropyl (1-hydroxy-7-methyl-1,3-dihydrobenzo[c][1,2]oxaborole-6-carbonyl)-L-valinate] | 8.00 to 9.29 | 6.00 to 7.68
24 | Cc1c(C(=O)N[C@H](C(=O)OCc2ccc([S+](C)[O-])cc2)C(C)C)ccc2c1B(O)OC2 (stereo partly drawn) [Example 6-090, 4-(Methylsulfinyl)benzyl (1-hydroxy-7-methyl-1,3-dihydrobenzo[c][1,2]oxaborole-6-carbonyl)-L-valinate] | 8.00 to 9.29 | 6.00 to 7.68
25 | Cc1c(C(=O)N[C@H](C(=O)O[C@H]2CCOC2)C(C)C)ccc2c1B(O)OC2 [Example 6-140, (S)-Tetrahydrofuran-3-yl (1-hydroxy-7-methyl-1,3-dihydrobenzo[c][1,2]oxaborole-6-carbonyl)-L-valinate] | 8.00 to 9.29 | 6.00 to 7.68
26 | Cc1c(C(=O)N[C@H](C(=O)OCc2ccc(F)cc2)C(C)(C)O)ccc2c1B(O)OC2 [Example 6-169, 4-Fluorobenzyl (S)-3-hydroxy-2-(1-hydroxy-7-methyl-1,3-dihydrobenzo[c][1,2]oxaborole-6-carboxamido)-3-methylbutanoate] | > 9.30 | ≥ 7.70
27 | Cc1c(C(=O)N[C@H](C(=O)OCc2nccs2)C(C)C)ccc2c1B(O)OC2 [Example 6-124, Thiazol-2-ylmethyl (1-hydroxy-7-methyl-1,3-dihydrobenzo[c][1,2]oxaborole-6-carbonyl)-L-valinate] | > 9.30 | 6.00 to 7.68
28 | Cc1c(C(=O)N[C@H](C(=O)OCc2ccc(S(C)(=O)=O)c(CN(C)C)c2)C(C)C)ccc2c1B(O)OC2 [Example 6-110, 3-((Dimethylamino)methyl)-4-(methylsulfonyl)benzyl (1-hydroxy-7-methyl-1,3-dihydrobenzo[c][1,2]oxaborole-6-carbonyl)-L-valinate] | 8.00 to 9.29 | 6.00 to 7.68
29 | Cc1c(C(=O)N[C@H](C(=O)OCc2ccc(CN3CCCC3)cc2)C(C)C)ccc2c1B(O)OC2 [Example 6-131, 4-(Pyrrolidin-1-ylmethyl)benzyl (1-hydroxy-7-methyl-1,3-dihydrobenzo[c][1,2]oxaborole-6-carbonyl)-L-valinate] | > 9.30 | 6.00 to 7.68
30 | Cc1c(C(=O)N[C@H](C(=O)OCc2ccc(OCCN3CCCC3)c(F)c2)C(C)C)ccc2c1B(O)OC2 [Example 6-242, 3-Fluoro-4-(2-(pyrrolidin-1-yl)ethoxy)benzyl (1-hydroxy-7-methyl-1,3-dihydrobenzo[c][1,2]oxaborole-6-carbonyl)-L-valinate] | 8.00 to 9.29 | ≥ 7.70

Source: US11578087B2, “Oxaborole esters and uses thereof” (priority 2016, dated 2023)
